# Legend:
# human 5-HT1A receptor = molecular target: T1, human 5-HT1A receptor (Homo sapiens, UniProt P08908); test: Competition radioligand binding at human 5-HT1A receptor ([3H]-8-OH-DPAT); details: mean ± SEM of 2 independent experiments, read-out: hu5-HT1A % inh. at 10 µM
# T1 construct: expressed in transfected cells; host or cells: HEK293
# T1 sequence (P08908 1-422): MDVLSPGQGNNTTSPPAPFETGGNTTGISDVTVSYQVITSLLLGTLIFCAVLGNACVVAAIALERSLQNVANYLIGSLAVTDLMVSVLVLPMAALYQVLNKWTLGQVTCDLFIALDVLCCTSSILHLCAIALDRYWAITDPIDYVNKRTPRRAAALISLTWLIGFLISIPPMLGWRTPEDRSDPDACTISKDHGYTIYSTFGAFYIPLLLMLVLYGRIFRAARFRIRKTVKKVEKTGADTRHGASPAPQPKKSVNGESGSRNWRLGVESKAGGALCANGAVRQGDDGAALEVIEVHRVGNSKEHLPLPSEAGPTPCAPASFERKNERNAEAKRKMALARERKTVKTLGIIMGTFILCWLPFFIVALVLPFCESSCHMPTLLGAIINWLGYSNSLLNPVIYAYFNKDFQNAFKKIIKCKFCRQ
# Protocol: (§1) Competition radioligand binding assays were performed on membranes isolated from cell lines stably expressing the cloned human receptors, which were either in-house or commercially available. […] Assays (250 μL assay final volume) were carried out in 96-well polypropylene plates in duplicate. In short, the suspension of appropriate membrane protein was incubated in an assay buffer with the addition of the corresponding radioligand, in the presence or absence of a tested compound or reference compound. […] After the incubation, the content of the test plates was transferred to 96 well plates with glass fiber filter GF/B or GF/C, previously pretreated with polyethyleneimine (PEI), and rapidly filtered with the use of vacuum, followed by rapid washing with cold (4 °C) wash buffer. After that, the filter plates were dried at 60 °C for 1 h. Then, 30 μL of liquid scintillation cocktail (UniverSol-ES, MP Biomedicals, Solon, OH, USA) was added to each well of the filter plates, and the radioactivity was measured in a MicroBeta^2 microplate scintillation counter (PerkinElmer, Madrid, Spain).
# (§2) Competition binding curves were fitted to a one-site competition binding model (Fit Ki) with the use of Prism 7 software (GraphPad, San Diego, CA, USA). logKi (log of the equilibrium dissociation constant (Ki)) values were obtained after constraining the concentration of radioligand employed in the assay and its dissociation constant (KD) as determined in saturation radioligand binding assays.
# [1] = molecular target: T2, human dopamine D3 receptor (Homo sapiens, UniProt P35462); test: Competition radioligand binding at human D3 receptor ([3H]-Spiperone); details: mean ± SEM of 2 independent experiments, read-out: huD3 % inh. at 10 µM
# T2 construct: expressed in transfected cells; host or cells: CHO-K1
# T2 sequence (P35462 whole entry): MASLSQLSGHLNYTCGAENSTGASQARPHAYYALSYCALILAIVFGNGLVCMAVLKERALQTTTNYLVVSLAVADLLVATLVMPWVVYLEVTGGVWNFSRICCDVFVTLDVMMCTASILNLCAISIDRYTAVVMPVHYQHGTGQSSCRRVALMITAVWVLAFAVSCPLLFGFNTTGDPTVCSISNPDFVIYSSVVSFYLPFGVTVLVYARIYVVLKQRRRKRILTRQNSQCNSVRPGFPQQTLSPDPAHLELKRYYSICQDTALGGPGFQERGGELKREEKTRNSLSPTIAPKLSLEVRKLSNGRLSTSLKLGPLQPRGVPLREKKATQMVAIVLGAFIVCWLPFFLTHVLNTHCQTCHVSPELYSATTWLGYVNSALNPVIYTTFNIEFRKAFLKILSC
# Protocol: as §1, §2
structure (smiles),measurement,setting,value
"O=C(CCN1C(=O)CSc2ccccc21)Nc1ccc(Cl)cc1 [Compound 17, N-(4-Chlorophenyl)-3-(3-oxo-2,3-dihydro-4H-benzo[b][1,4]thiazin-4-yl)propanamide]",inhibition at 10 µM,human 5-HT1A receptor,29 ± 9%
same,inhibition at 10 µM,[1],6 ± 3%
